Experimental data from PubChem BioAssay (NCI).
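Dose response: 5 concentrations. Exposure: 48 h. Format: 96-well plates. Endpoint: linear interpolation; highest concentration if not reached. Abbreviation: GI50, concentration required for 50% inhibition of growth. TGI: concentration producing complete growth inhibition.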

What was measured:
Test in all cases: inhibition of tumour cell growth, NCI panel, 48 h
[1] = test system: M14 melanoma
[2] = test system: UACC-257 melanoma
[3] = test system: NCI/ADR-RES ovarian
[4] = test system: BT-549 breast
[5] = test system: HOP-92 NSCLC
[6] = test system: OVCAR-8 ovarian
[7] = test system: MOLT-4 leukemia
[8] = test system: PC-3 prostate
[9] = test system: DU-145 prostate
[10] = test system: MDA-MB-231 breast
[11] = test system: EKVX NSCLC
[12] = test system: CCRF-CEM leukemia
[13] = test system: HCC-2998 colon
[14] = test system: SK-MEL-28 melanoma
[15] = test system: TK-10 renal
[16] = test system: NCI-H522 lung
[17] = test system: RPMI-8226 leukemia
[18] = test system: SNB-19 CNS
[19] = test system: A498 renal
[20] = test system: NCI-H23 lung
[21] = test system: SK-OV-3 ovarian
[22] = test system: SW-620 colon
[23] = test system: SK-MEL-2 melanoma
[24] = test system: OVCAR-5 ovarian
[25] = test system: CAKI-1 renal
[26] = test system: T-47D breast
[27] = test system: SK-MEL-5 melanoma
[28] = test system: NCI-H460 lung
[29] = test system: MALME-3M melanoma
[30] = test system: OVCAR-4 ovarian
[31] = test system: KM12 colon
[32] = test system: SF-539 CNS
[33] = test system: HT29 colon
[34] = test system: HS 578T breast
[35] = test system: UO-31 renal
[36] = test system: SNB-75 CNS
[37] = test system: HL-60(TB) leukemia
[38] = test system: A549 NSCLC
[39] = test system: ACHN renal
[40] = test system: HCT-15 colon
[41] = test system: K-562 leukemia
[42] = test system: HOP-62 NSCLC
[43] = test system: SF-268 CNS
[44] = test system: IGROV1 ovarian
[45] = test system: SN12C renal
[46] = test system: SF-295 CNS
[47] = test system: MCF7 breast
[48] = test system: NCI-H226 lung
[49] = test system: 786-0 renal
[50] = test system: UACC-62 melanoma
[51] = test system: COLO 205 colon
[52] = test system: RXF 393 renal
[53] = test system: MDA-MB-435

NCCN1CCN(c2nc(-c3ccccc3)nc3nc(-c4ccccc4)oc23)CC1
GI50 [1]: 2040 nM
TGI [1]: 3720 nM
GI50 [2]: 3340 nM
TGI [2]: 13400 nM
GI50 [3]: 1900 nM
TGI [3]: 3970 nM
GI50 [4]: 1680 nM
TGI [4]: 3310 nM
GI50 [5]: 1350 nM
TGI [5]: 2870 nM
GI50 [6]: 1980 nM
TGI [6]: 4460 nM
GI50 [7]: 2080 nM
TGI [7]: 4620 nM
GI50 [8]: 1590 nM
TGI [8]: 3060 nM
GI50 [9]: 1920 nM
TGI [9]: 3450 nM
GI50 [10]: 1830 nM
TGI [10]: 3560 nM
GI50 [11]: 1670 nM
TGI [11]: 3360 nM
GI50 [12]: 919 nM
TGI [12]: 3290 nM
GI50 [13]: 1630 nM
TGI [13]: 3060 nM
GI50 [14]: 1790 nM
TGI [14]: 3350 nM
GI50 [15]: 1650 nM
TGI [15]: 3390 nM
GI50 [16]: 2160 nM
TGI [16]: 5050 nM
GI50 [17]: 1880 nM
TGI [17]: 4620 nM
GI50 [18]: 1820 nM
TGI [18]: 3460 nM
GI50 [19]: 1690 nM
TGI [19]: 3310 nM
GI50 [20]: 1690 nM
TGI [20]: 3210 nM
GI50 [21]: 1910 nM
TGI [21]: 3690 nM
GI50 [22]: 1710 nM
TGI [22]: 3300 nM
GI50 [23]: 22300 nM
TGI [23]: 47700 nM
GI50 [24]: 1770 nM
TGI [24]: 3260 nM
GI50 [25]: 1640 nM
TGI [25]: 3170 nM
GI50 [26]: 2050 nM
TGI [26]: 4660 nM
GI50 [27]: 1740 nM
TGI [27]: 3180 nM
GI50 [28]: 1940 nM
TGI [28]: 3690 nM
GI50 [29]: 1750 nM
TGI [29]: 3390 nM
GI50 [30]: 2150 nM
TGI [30]: 4420 nM
GI50 [31]: 1860 nM
TGI [31]: 3470 nM
GI50 [32]: 1790 nM
TGI [32]: 3250 nM
GI50 [33]: 1970 nM
TGI [33]: 4000 nM
GI50 [34]: 2220 nM
TGI [34]: 5060 nM
GI50 [35]: 1460 nM
TGI [35]: 3010 nM
GI50 [36]: 1300 nM
TGI [36]: 2600 nM
GI50 [37]: 1860 nM
TGI [37]: 4480 nM
GI50 [38]: 1850 nM
TGI [38]: 3910 nM
GI50 [39]: 1810 nM
TGI [39]: 3290 nM
GI50 [40]: 1490 nM
TGI [40]: 2970 nM
GI50 [41]: 287 nM
TGI [41]: 1010 nM
GI50 [42]: 2030 nM
TGI [42]: 4550 nM
GI50 [43]: 1850 nM
TGI [43]: 3960 nM
GI50 [44]: 1800 nM
TGI [44]: 3490 nM
GI50 [45]: 1800 nM
TGI [45]: 3500 nM
GI50 [46]: 1890 nM
TGI [46]: 3600 nM
GI50 [47]: 1310 nM
TGI [47]: 2860 nM
GI50 [48]: 1970 nM
TGI [48]: 4130 nM
GI50 [49]: 1770 nM
TGI [49]: 3640 nM
GI50 [50]: 1850 nM
TGI [50]: 3470 nM
GI50 [51]: 1930 nM
TGI [51]: 3920 nM
GI50 [52]: 1630 nM
TGI [52]: 3410 nM
GI50 [53]: 1820 nM
TGI [53]: 3320 nM
